Numbers after ± are expanded uncertainties.
Assay: wn = mass fraction of the nth substance listed
Settings: 101 kPa, Liquid; for viscosity: Capillary tube (Ostwald / Ubbelohde) method; for mass density: Vibrating tube method

SMILES: CCC(C)O (stereo not drawn) [butan-2-ol] + O
- viscosity (298.15 K, w1 = 0.7): 3.342 ± 0.029 mPa·s
- viscosity (298.15 K, w1 = 0.8): 3.098 ± 0.026 mPa·s
- viscosity (298.15 K, w1 = 0.9): 2.812 ± 0.024 mPa·s
- mass density (298.15 K, w1 = 0.7): 863.8 ± 0.2 kg/m3
- mass density (298.15 K, w1 = 0.8): 843.6 ± 0.2 kg/m3
- mass density (298.15 K, w1 = 0.9): 822.8 ± 0.2 kg/m3
- viscosity (303.15 K, w1 = 0.7): 2.795 ± 0.025 mPa·s
- viscosity (303.15 K, w1 = 0.8): 2.608 ± 0.023 mPa·s
- viscosity (303.15 K, w1 = 0.9): 2.375 ± 0.021 mPa·s
- mass density (303.15 K, w1 = 0.7): 859.6 ± 0.2 kg/m3
- mass density (303.15 K, w1 = 0.8): 839.2 ± 0.2 kg/m3
- mass density (303.15 K, w1 = 0.9): 818.8 ± 0.2 kg/m3
- viscosity (308.15 K, w1 = 0.7): 2.377 ± 0.022 mPa·s
- viscosity (308.15 K, w1 = 0.8): 2.216 ± 0.021 mPa·s
- viscosity (308.15 K, w1 = 0.9): 2.029 ± 0.019 mPa·s
- mass density (308.15 K, w1 = 0.7): 855.1 ± 0.2 kg/m3
- mass density (308.15 K, w1 = 0.8): 834.8 ± 0.2 kg/m3
- mass density (308.15 K, w1 = 0.9): 813.5 ± 0.2 kg/m3
